ChEMBL document CHEMBL1201862, “PubChem BioAssay data set” (2004)
Calls of active or inactive are those of the source.

Experiments:
fMet-Leu-Phe receptor = fMet-Leu-Phe receptor (Homo sapiens, UniProt P21462); test: FPR ligands, dose response (AID 519); format: functional
BJ [1] = test: cytotoxicity toward Ras-transformed BJeLR fibroblasts, dose response, cell-based, alamar blue fluorescence, cherrypicked samples (AID 2631); format: functional; conditions: Homo sapiens;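 further: confirmatory dose-response assay in RAS-dependent BJ fibroblasts engineered with TERT, LT and ST, with cytotoxicity read by fluorescence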
BJ [2] = test: cytotoxicity toward BJ-TERT-LT-ST fibroblasts, dose response, cell-based, RAS-independent, luminescence (AID 1935); format: functional; conditions: Homo sapiens;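 further: BJ fibroblasts immortalized with TERT plus LT and ST oncogenes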
BJ [3] = test: cytotoxicity toward BJ-TERT fibroblasts, dose response, cell-based, RAS-independent, luminescence (AID 1933); format: functional; conditions: Homo sapiens
[4] = cytotoxicity toward DRD oncogenic fibroblasts, dose response, cell-based, non-viral oncogenic, luminescence (AID 1934); format: functional; conditions: Homo sapiens
BJ [5] = test: cells; format: functional, cell-based; conditions: Homo sapiens
[6] = human group III sPLA2 inhibitors, dose response, biochemical, QFRET, IC50 (AID 743457);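 further: green fluorescence rise as the enzyme cleaves BODIPY PC-A2 in liposomes; potency for inhibition of the enzyme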
[7] = biological target: T1, Low molecular weight phosphotyrosine protein phosphatase (Homo sapiens, UniProt P24666); format: functional; conditions: read-out: IC50_Mean
T1 sequence (P24666 whole entry): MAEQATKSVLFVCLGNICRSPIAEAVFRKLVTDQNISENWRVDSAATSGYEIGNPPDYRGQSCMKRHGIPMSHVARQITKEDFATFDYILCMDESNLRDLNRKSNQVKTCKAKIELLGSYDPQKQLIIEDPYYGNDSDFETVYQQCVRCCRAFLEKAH

[8] = biological target: T1, Low molecular weight phosphotyrosine protein phosphatase; format: functional; conditions: read-out: IC50_Mean; remark: listed apart in the source
[9] = CEM21 lymphoblast cell cytotoxicity, dose response, cytotoxicity control for viral fusion inhibitor project, CellTiter-Glo luminescence, cherry-picked (AID 652042); format: functional, cell-based;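 further: potency for signal decrease meaning cytotoxicity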
[10] = inhibitors of clade B AD8 Env fusion, dose response, cell-based, cherry-pick (AID 652062); format: functional;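 further: luciferase signal from cell-cell fusion driven by HIV-1 clade B AD8 Env; potency is for inhibitors of fusion seen as a drop in luminescence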
[11] = off-target signal loss in HeLa-CEM21 co-culture – HeLa F-luc CTL cells, cherry-picked, counter-screen for HIV-1 Env fusion inhibitor project, dose response (AID 652040); format: functional, cell-based;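 further: potency for signal decrease marking cytotoxic or nonspecific inhibition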
[12] = inhibitors of HIV Env-driven cell fusion, dose response, cherry-pick (AID 652057); format: functional, cell-based
[13] = ZM109 Env clade C HIV-1 fusion inhibitors, dose response, HeLa effector, CEM target cells, luciferase, cherry-pick (AID 652058); format: functional, cell-based
[14] = biological target: T2, Oxysterols receptor LXR-beta (Homo sapiens, UniProt P55055); format: functional, cell-based;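 further: agonist activity at LXR measured by a cell-based luminescence readout across a dose range, run as a counterscreen for daf-12 agonists; HEK293 cells with Gal4-LXR fusion and GAL4-driven luciferase reporter; potency for activation of Gal4-LXR reporter so compounds are agonists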
T2 sequence (P55055 whole entry): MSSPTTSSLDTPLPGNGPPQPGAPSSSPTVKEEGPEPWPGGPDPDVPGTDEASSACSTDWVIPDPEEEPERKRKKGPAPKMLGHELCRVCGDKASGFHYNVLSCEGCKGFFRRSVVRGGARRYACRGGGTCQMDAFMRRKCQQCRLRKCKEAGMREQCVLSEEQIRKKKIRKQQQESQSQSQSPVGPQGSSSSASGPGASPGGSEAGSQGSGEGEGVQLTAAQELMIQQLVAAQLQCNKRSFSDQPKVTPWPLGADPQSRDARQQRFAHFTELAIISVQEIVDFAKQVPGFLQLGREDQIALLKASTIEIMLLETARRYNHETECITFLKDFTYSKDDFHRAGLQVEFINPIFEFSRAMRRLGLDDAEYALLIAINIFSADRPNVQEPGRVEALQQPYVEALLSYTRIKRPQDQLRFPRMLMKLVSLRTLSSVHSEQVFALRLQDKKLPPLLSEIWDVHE

cells [15] = format: functional, cell-based
cells [16] = format: functional, cell-based; remark: listed apart in the source
[17] = HEp-2 cell cytotoxicity, dose response, cytotoxicity control for RSV inhibitor project, HTS (AID 2410); format: functional; conditions: human respiratory syncytial virus
Fatty acid synthase [18] = biological target: T3, Fatty acid synthase (Homo sapiens, UniProt P49327); test: FAS thioesterase domain inhibitors, dose response, biochemical, endpoint fluorescence intensity, uHTS hits (AID 624327); format: functional;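 further: fluorescence from hydrolysis of an O-methyl fluorescein acyl ester substrate by the enzyme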
Fatty acid synthase [19] = biological target: T3, Fatty acid synthase; test: FAS thioesterase domain inhibitors, dose response, biochemical, kinetic fluorescence intensity (AID 624326); format: functional;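 further: rate of fluorescence rise from hydrolysis of a fluorogenic O-methyl fluorescein ester substrate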
[20] = biological target: T4, Probable nicotinate-nucleotide adenylyltransferase (Staphylococcus aureus (strain N315), UniProt P65502); format: functional, Staphylococcus aureus subsp. aureus N315; conditions: read-out: IC50_Mean;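 on IC50 Mean: confirmatory dose-response retesting of NadD inhibitor hits first found in an ultra-high-throughput screen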
[21] = biological target: T4, Probable nicotinate-nucleotide adenylyltransferase; format: functional, Staphylococcus aureus subsp. aureus N315

T3 sequence (P49327 whole entry, the tested form may be a part): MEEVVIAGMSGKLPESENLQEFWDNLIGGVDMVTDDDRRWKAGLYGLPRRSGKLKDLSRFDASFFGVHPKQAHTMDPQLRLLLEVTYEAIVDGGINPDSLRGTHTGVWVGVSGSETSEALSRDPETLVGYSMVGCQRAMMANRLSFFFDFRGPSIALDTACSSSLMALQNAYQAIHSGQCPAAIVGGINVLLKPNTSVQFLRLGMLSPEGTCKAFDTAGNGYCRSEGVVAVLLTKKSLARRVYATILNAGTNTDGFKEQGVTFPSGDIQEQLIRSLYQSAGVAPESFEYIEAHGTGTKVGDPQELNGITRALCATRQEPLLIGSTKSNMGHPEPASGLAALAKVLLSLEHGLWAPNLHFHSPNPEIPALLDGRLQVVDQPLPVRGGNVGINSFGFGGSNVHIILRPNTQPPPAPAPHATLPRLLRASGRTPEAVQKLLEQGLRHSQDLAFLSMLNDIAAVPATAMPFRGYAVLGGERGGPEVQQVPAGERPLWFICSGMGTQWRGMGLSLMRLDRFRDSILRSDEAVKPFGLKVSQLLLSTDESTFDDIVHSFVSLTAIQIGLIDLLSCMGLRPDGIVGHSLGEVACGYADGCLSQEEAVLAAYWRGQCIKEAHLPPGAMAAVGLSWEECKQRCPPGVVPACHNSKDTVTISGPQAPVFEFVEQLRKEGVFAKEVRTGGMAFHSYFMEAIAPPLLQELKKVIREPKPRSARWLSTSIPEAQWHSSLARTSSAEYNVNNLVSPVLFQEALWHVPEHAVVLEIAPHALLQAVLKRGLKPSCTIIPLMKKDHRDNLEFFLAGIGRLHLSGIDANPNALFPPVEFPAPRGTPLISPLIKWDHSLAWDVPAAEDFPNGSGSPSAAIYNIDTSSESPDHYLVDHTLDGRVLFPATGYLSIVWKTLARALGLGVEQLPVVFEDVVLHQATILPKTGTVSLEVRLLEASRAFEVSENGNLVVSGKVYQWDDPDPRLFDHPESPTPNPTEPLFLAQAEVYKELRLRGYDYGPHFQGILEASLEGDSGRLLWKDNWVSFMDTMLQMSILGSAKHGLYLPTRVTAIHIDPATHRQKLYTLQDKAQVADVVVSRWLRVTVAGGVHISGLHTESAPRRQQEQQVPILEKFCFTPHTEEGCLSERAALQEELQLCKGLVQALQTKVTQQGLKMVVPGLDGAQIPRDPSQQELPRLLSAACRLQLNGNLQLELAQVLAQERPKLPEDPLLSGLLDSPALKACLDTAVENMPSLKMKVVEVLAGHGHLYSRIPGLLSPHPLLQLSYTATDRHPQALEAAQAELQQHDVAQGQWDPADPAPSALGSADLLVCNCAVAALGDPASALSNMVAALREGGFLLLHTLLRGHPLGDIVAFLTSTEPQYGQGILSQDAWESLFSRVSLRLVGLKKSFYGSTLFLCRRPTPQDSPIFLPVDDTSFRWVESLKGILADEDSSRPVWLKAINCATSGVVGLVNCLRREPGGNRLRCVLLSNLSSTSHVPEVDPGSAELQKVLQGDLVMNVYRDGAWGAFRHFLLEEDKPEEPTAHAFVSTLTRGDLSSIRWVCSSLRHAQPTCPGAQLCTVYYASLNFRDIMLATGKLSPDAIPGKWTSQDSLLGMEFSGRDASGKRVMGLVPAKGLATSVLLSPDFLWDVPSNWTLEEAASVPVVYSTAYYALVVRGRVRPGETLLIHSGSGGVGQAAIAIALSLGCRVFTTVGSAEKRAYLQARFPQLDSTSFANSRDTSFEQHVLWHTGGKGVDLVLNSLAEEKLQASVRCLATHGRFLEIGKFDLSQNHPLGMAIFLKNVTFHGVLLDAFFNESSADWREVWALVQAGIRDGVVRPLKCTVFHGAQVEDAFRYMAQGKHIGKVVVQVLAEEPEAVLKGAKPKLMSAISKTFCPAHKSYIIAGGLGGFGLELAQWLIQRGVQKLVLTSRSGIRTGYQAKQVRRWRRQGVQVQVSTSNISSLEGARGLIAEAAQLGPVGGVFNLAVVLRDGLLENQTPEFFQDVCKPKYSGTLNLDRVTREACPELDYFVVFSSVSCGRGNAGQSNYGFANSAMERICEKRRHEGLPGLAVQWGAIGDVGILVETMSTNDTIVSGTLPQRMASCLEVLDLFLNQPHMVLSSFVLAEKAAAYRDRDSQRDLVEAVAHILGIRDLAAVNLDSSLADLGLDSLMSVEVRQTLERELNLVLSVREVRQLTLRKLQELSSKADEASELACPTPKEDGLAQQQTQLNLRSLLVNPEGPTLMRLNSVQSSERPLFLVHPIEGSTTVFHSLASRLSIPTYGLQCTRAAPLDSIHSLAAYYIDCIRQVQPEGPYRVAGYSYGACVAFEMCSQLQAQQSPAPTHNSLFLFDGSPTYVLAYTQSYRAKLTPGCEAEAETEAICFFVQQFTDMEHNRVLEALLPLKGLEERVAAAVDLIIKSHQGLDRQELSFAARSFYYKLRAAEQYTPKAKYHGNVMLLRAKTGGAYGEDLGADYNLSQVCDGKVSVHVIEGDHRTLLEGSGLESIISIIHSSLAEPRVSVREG
T4 sequence (P65502 whole entry): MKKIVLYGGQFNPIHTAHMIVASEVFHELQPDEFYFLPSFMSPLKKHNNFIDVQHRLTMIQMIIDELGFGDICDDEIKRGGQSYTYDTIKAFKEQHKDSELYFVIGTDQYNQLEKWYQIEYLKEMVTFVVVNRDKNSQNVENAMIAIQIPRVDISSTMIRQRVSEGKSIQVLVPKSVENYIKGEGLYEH
fMet-Leu-Phe receptor, sequence (P21462 whole entry): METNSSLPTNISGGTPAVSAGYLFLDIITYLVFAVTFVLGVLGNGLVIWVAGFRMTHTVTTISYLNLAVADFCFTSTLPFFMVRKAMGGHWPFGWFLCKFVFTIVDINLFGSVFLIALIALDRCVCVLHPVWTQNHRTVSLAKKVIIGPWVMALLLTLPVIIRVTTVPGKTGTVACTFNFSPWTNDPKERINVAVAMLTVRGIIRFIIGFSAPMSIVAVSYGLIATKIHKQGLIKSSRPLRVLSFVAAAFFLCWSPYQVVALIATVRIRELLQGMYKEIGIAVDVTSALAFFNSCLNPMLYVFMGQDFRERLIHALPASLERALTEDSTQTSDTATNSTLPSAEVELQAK

Cc1ccc(Nc2nc(C3CC3)cs2)cc1
Ki (fMet-Leu-Phe receptor): 43.1 µM (inactive)

CN1C/C(=C/c2ccncc2)C(=O)/C(=C/c2ccncc2)C1
EC50 (BJ [1]): 0.455 µM (active) | EC50 (BJ [2]): 5.85 µM (inconclusive) | EC50 (BJ [3]): 3.82 µM (active) | EC50 [4]: 7.52 µM (active) | EC50 (BJ [5]): 3.65 µM (inconclusive)

Cc1c(C)c2cc(Cl)c(O)c(CN3CCCCC3)c2oc1=O
Ki (fMet-Leu-Phe receptor): > 66.7 µM (inactive)

O=C(NN=C(S)NCc1ccccc1)c1ccccc1OC(F)F
IC50 [6]: > 122 µM (inactive)

Cc1c(C(=O)OCC(=O)N2CC(=O)Nc3ccccc32)oc2ccc(Br)cc12
EC50 (BJ [1]): > 133 µM (inactive) | EC50 (BJ [2]): > 150 µM (inconclusive) | EC50 (BJ [3]): 10.1 µM (active) | EC50 [4]: 15.6 µM (active) | EC50 (BJ [5]): 35.9 µM (active)

O=C1NC(=O)N(CCc2ccc(F)cc2)C(=O)/C1=C\NCc1ccc2c(c1)OCO2
IC50 [7]: > 80 µM (inactive) | IC50 [8]: 3.2 µM (active)

CCOC(=O)Cn1nnnc1CN(CCc1ccccc1)Cc1cc2cc(CC)ccc2nc1O
AC50 [9]: 54.2 µM (active) | AC50 [10]: 29.3 µM (active) | AC50 [11]: 6.05 µM (active) | AC50 [12]: 2.97 µM (active) | AC50 [13]: 1.17 µM (active)

O=C(NCC1CCCO1)c1cc(-c2ccccc2F)no1 (stereo not drawn)
EC50 [14]: > 67.5 µM (inactive) | EC50 (cells [15]): 43.8 µM (active) | EC50 (cells [16]): 190 µM (active)

O=[N+]([O-])c1ccc(Cl)c(S(=O)(=O)Nc2cccc(-c3ccc(N4CCCC4)nn3)c2)c1
CC50 [17]: 14.7 µM (active) | IC50 (Fatty acid synthase [18]): 8.75 µM (active) | IC50 (Fatty acid synthase [19]): 7.65 µM (active) | IC50 [20]: 23.5 µM (active) | IC50 [21]: 6.57 µM (active)
